Consider 1 molecule from BindingDB's records for doi:10.3109/14756366.2012.668539 (Federal University of São Paulo, 2013).

The experiment concerns the target T1, Papain (Carica papaya, UniProt P00784).
T1 sequence (P00784 whole entry): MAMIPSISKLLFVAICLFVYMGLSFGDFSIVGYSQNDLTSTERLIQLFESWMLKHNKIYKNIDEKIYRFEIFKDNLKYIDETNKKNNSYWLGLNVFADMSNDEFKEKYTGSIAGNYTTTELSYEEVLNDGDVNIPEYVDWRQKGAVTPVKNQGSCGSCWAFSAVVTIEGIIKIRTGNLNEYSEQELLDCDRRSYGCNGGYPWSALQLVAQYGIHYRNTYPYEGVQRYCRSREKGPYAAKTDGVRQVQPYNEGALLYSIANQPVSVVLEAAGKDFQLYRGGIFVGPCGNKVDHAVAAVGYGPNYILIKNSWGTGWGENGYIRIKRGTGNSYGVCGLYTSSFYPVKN
The experiment is described as follows: Kinetic Assay. As to the method:
To characterize the type and extent inhibition of papain by fukugetin, papain (0.04 nM) was incubated with four concentrations of fukugetin (1.5, 3, 6 and 12μM). For cruzain, enzyme concentration was 12 nM and inhibitor concentrations varied from 1 μM to 10 μM. Analysis of enzyme kinetic data was carried out using the Lineweaver-Burk plot30 in Grafit 5.0 software. Hydrolytic activity was measured […], mixing fukugetin and enzymes by addition growingconcentrations of Cbz-Phe-Arg-MCA (0.5-22 μM).

Broadly, the Ki is a dissociation constant, usually derived from enzyme kinetics or from competition with a known ligand. For `O=C1c2c(O)cc(O)cc2OC(c2ccc(O)cc2)C1c1c(O)cc(O)c2c(=O)cc(-c3ccc(O)c(O)c3)oc12` (stereo unspecified) [Fukugetin], the Ki is 13.4 µM.
